# Measurements from paper PMC12766724, “Synthesis, Anthelmintic Activity, and Mechanism of Action of 5‑Aryl‑1H‑indoles” (Journal of Agricultural and Food Chemistry, 2025).
# Experiments:
# Skin fibroblasts (BJ) = experiment: Resazurin assay, 3-day treatment; format: cell-based, human; conditions: BJ
# Protocol: Skin fibroblasts (BJ) were obtained from the American Type Culture Collection (ATCC, Manassas, VA), while human keratinocytes (HaCaT) were sourced from the German Cancer Research Center in Heidelberg, Germany. Cells were cultured in a standard DMEM medium from Sigma-Aldrich, supplemented with 10% fetal bovine serum, 2 mM glutamine, 100 U/mL penicillin, and 100 μg/mL streptomycin. Cultures were maintained under standard conditions (37 °C, 5% CO2, humidified atmosphere) and subcultured two to three times per week. We assessed the effect of 3-day compound treatments on cell viability using a resazurin reduction assay measuring mitochondrial activity. Approximately 5,000 cells in 80 μL of culture medium were seeded into the wells of a 96-well plate. Twenty-four hours later, 20 μL of 5-fold concentrated test compound solutions was added and tested across three concentrations prepared through 2-fold serial dilutions. The highest final concentration was 40 μM. After 72 h, we added an 11-fold concentrated resazurin solution to the wells, achieving a final concentration of 0.0125 μM. Fluorescence (ex = 570 nm, em = 610 nm) was measured after 3 h of incubation. […]
# [1] = test system: human keratinocytes (HaCaT); experiment: Resazurin assay, 3-day treatment; format: cell-based
# Protocol: Skin fibroblasts (BJ) were obtained from the American Type Culture Collection (ATCC, Manassas, VA), while human keratinocytes (HaCaT) were sourced from the German Cancer Research Center in Heidelberg, Germany. Cells were cultured in a standard DMEM medium from Sigma-Aldrich, supplemented with 10% fetal bovine serum, 2 mM glutamine, 100 U/mL penicillin, and 100 μg/mL streptomycin. Cultures were maintained under standard conditions (37 °C, 5% CO2, humidified atmosphere) and subcultured two to three times per week. We assessed the effect of 3-day compound treatments on cell viability using a resazurin reduction assay measuring mitochondrial activity. Approximately 5,000 cells in 80 μL of culture medium were seeded into the wells of a 96-well plate. Twenty-four hours later, 20 μL of 5-fold concentrated test compound solutions was added and tested across three concentrations prepared through 2-fold serial dilutions. The highest final concentration was 40 μM. After 72 h, we added an 11-fold concentrated resazurin solution to the wells, achieving a final concentration of 0.0125 μM. Fluorescence (ex = 570 nm, em = 610 nm) was measured after 3 h of incubation.
# The disubstituted derivatives i-25 and i-27 were the most toxic in the set, causing around a 50% decrease in viability of HaCaT cells at 40 μM.
# C. elegans N2 wild-type = experiment: Chitinase assay (reproductive capacity); format: in vivo, Caenorhabditis elegans; conditions: Caenorhabditis elegans
# Protocol: The effect of compounds on C. elegans was evaluated using the Chitinase assay as we described previously.
# After exposing L1 larvae to the compounds for 4 days, we observed the populations under a microscope and measured the Chitinase activity. The larvae produce the enzyme while hatching, and its activity is indicative of the reproductive capacity of the worms. Populations that fail to reproduce due to acute or reproductive toxicity or developmental abnormalities are detected.
# [2] = test system: age unsynchronized Ditylenchus destructor; experiment: Motility on WMicrotracker ONE; format: in vivo
# Protocol: Populations of D. destructor, kindly provided by Central Institute for Supervising and Testing in Agriculture, the Ministry of Agriculture of the Czech Republic, were maintained according to the protocol previously described here.
# (§1) The effect of compounds on motility of H. contortus, D. destructor, and H. schachtii was evaluated using the WMicrotracker ONE platform according to previously published protocols. ,
# (§2) The instrument evaluates the activity of small animals by counting how many times infrared light microbeams passing through the wells of a microtiter plate are interrupted. In age-unsynchronized populations of D. destructor, we observed reduced motility of worm populations treated with the halogenated derivatives i-19, i-20, and i-21 (Figures A, S2.1A, S2.2A and Table S2.1). […] The decreases in mean activity counts after 72 h of treatment at 100 μM were 85% and 97%, respectively.
# [3] = test system: Heterodera schachtii second-stage juveniles (J2); experiment: Motility on WMicrotracker ONE; format: in vivo
# Protocol: H. schachtii was maintained on mustard (Sinapsis alba cv. Albatros) roots grown in vitro on modified KNOP medium according to the previously published protocols. ,
# as §1, §2
# [4] = 10 mM group, initial (prior to the treatment)
compound,measurement,setting,value
Oc1cccc(-c2ccc3[nH]ccc3c2)c1 [i-3],Average viability (signal intensity relative to control),Skin fibroblasts (BJ); 10 µM,1 ± 0.01
same,Average viability (signal intensity relative to control),Skin fibroblasts (BJ); 20 µM,0.97 ± 0
same,Average viability (signal intensity relative to control),Skin fibroblasts (BJ); 40 µM,0.89 ± 0
same,Average viability (signal intensity relative to control),[1]; 10 µM,1.02 ± 0.06
same,Average viability (signal intensity relative to control),[1]; 20 µM,1 ± 0.06
same,Average viability (signal intensity relative to control),[1]; 40 µM,0.93 ± 0.06
CC(C)Oc1ccc(-c2ccc3[nH]ccc3c2)cc1 [i-16],IC50,C. elegans N2 wild-type,15.2 ± 0.89 µM
"[N-]=[N+]=[N-].[Na+] [NaN3, reference compound]",average activity counts,[2]; [4],223
same,average activity counts,"[2]; 10 mM, 48 h",7
same,average activity counts,"[2]; 10 mM, 72 h",2
same,average activity counts,[3]; [4],182
same,average activity counts,"[3]; 10 mM, 48 h",2
same,average activity counts,"[3]; 10 mM, 72 h",2
Oc1cc(-c2ccc3[nH]ccc3c2)ccc1Cl [i-24],IC50,C. elegans N2 wild-type,25 to 50 µM
